For one compound, Ki results are on record in patent US8017614B2, “Arylindenopyrimidines compound and use as an adenosine A2a receptor antagonists” (priority 2007, dated 2011).

For assay [1], the target named is T1, human adenosine A2a receptors (Homo sapiens, UniProt P29274).
T1 construct: expressed in transfected cells; host or cells: CHO-K1
Put plainly: Adenosine A2a receptor functional assay (cAMP-inducible beta-galactosidase reporter, antagonist mode vs NECA). The note with it: CHO-K1 cells overexpressing human adenosine A2a receptors; 50 nM NECA; read-out: A2a cell-based functional Ki. The procedure:
Ligand binding assay of adenosine A2a receptor was performed using plasma membrane of HEK293 cells containing human A2a adenosine receptor (PerkinElmer, RB-HA2a) and radioligand [3H] CGS21680 (PerkinElmer, NET1021). Assay was set up in 96-well polypropylene plate in total volume of 200, uL by sequentially adding 20 pL1:20 diluted membrane, pLassay buffer (50 mM Tris HCl, pH7.4 10 mM MgCl2, 1 mM EDTA) containing [3H] CGS2168O, 50, uL diluted compound (4×) or vehicle control in assay buffer. Nonspecific binding was determined by […] NECA. Reaction was carried out at room temperature for 2 hours before filtering through 96 well GF/C filter plate pre-soaked in 50 mM Tris HCl, pH7.4 containing 0.3% polyethylenimine. Plates were then washed 5 times with cold 50 mM Tris HCl, pH7.4, dried and sealed at the bottom. Microscintillation fluid 30, ul was added to each well and the top sealed. Plates were counted on Packard Topcount for [3H]. Data was analyzed in Microsoft Excel and GraphPad Prism programs. […] Plates were counted at 405 nm on Vmax Machine (Molecular Devices). Data was analyzed in Microsoft Excel and GraphPad Prism programs. […]

Assay [2] deals with T2, A1 (Homo sapiens, UniProt P30542).
T2 sequence (P30542 1-326): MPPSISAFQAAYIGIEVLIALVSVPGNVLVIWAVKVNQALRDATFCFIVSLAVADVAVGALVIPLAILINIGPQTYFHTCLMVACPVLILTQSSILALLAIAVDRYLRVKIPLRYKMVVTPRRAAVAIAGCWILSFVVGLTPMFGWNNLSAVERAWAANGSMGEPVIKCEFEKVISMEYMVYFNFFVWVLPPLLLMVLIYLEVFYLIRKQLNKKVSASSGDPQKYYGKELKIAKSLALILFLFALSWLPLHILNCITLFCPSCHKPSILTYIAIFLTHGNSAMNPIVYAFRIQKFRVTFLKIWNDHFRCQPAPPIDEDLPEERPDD
Put plainly: A1 cell-based functional assay.

T1 sequence (P29274 whole entry): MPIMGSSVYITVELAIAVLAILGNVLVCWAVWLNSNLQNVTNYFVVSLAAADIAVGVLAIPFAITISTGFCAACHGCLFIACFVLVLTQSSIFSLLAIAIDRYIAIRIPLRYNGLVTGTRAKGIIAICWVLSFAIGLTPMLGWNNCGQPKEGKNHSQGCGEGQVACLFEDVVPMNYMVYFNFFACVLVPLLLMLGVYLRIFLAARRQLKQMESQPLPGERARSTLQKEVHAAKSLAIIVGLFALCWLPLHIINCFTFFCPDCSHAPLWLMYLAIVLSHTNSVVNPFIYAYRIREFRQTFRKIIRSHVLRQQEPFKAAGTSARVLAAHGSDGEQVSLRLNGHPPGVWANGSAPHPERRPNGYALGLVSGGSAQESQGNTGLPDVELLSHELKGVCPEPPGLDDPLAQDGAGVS

The Ki is the dissociation constant of the complex between target and ligand, obtained from inhibition or displacement. Turning to `CN1CCN(C(=O)c2ccc3c(c2)-c2nc(N)nc(-c4ccccc4)c2C3=O)CC1` [Compound A, 2-Amino-8-(4-methyl-piperazine-1-carbonyl)-4-phenyl-indeno[1,2-d]pyrimidin-5-one], the Ki in assay [1] was found to be 8.2 nM; in assay [2], 58.4 nM.
